Experimental data from ChEMBL document CHEMBL1201862, “PubChem BioAssay data set” (2004).
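Five compound concentrations were applied to cells in 96-well plates for 48 hours; endpoints were derived by simple linear interpolation of the resulting dose-response curve. GI50: concentration for 50% inhibition of growth.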 Calls of active or inactive are those of the source. Rule as the data show it: active = GI50 up to about 1.1 µM and inactive = higher.

Experiments:
Experiment in all cases: NCI anticancer screen, dose series, 48 h
[1] = system: DMS-114
[2] = system: DMS-273
[3] = system: KM-20L2
[4] = system: M19-MEL
[5] = system: XF498
[6] = system: DLD-1
[7] = system: HOP-18
[8] = system: SNB-78
[9] = system: RXF 631

Structure (SMILES) | GI50 [1] | GI50 [2] | GI50 [3] | GI50 [4] | GI50 [5] | GI50 [6] | GI50 [7] | GI50 [8] | GI50 [9]
CCCCCCCCCC(=O)OCC1OC(n2cc(F)c(=O)[nH]c2=O)C(NC(=O)OCc2ccccc2)C(OC(=O)CCCCCCCCC)C1O (stereo unspecified) | 18.8 µM (inactive) | 36.8 µM (inactive) | > 10 µM (inactive) | 36.8 µM (inactive) | – | – | – | – | –
CCCCc1c2c([n+]([O-])c3c1CCCC3)CCCC2 | > 100 µM (inactive) | 96.6 µM (inactive) | > 100 µM (inactive) | 66.8 µM (inactive) | > 100 µM (inactive) | – | – | – | –
N#Cc1c2ccccc2c(Cc2ccc3c(c2)OCCOCCOCCOCCOCCO3)c2ccccc12 | 10.4 µM (inactive) | 4.68 µM (inactive) | 10 µM (inactive) | – | 10.5 µM (inactive) | 10.3 µM (inactive) | 10.1 µM (inactive) | 9.14 µM (inactive) | –
CC(=O)OC1OC2C(NC(=O)OC(C)(C)C)C1CC2(OCc1ccccc1)OCc1ccccc1 (stereo unspecified) | 18.7 µM (inactive) | 18.6 µM (inactive) | 19.9 µM (inactive) | 25.8 µM (inactive) | 18.9 µM (inactive) | – | 19.5 µM (inactive) | 37.6 µM (inactive) | 33.4 µM (inactive)
CCOC(=O)C(=O)Nc1c(C)cccc1C | > 100 µM (inactive) | > 100 µM (inactive) | > 100 µM (inactive) | > 100 µM (inactive) | > 100 µM (inactive) | > 100 µM (inactive) | > 100 µM (inactive) | > 100 µM (inactive) | –
Cc1n[nH]c(=S)n(C)c1=S | > 100 µM (inactive) | > 100 µM (inactive) | > 100 µM (inactive) | > 100 µM (inactive) | > 100 µM (inactive) | > 100 µM (inactive) | 27.2 µM (inactive) | > 100 µM (inactive) | > 100 µM (inactive)
C[C@@]1(O)CC[C@]2(C)C3CCCC3[C@H]12 (stereo partly specified) | > 100 µM (inactive) | > 100 µM (inactive) | > 100 µM (inactive) | > 100 µM (inactive) | – | > 100 µM (inactive) | > 100 µM (inactive) | > 100 µM (inactive) | > 100 µM (inactive)
N#C/C(c1nc2ccccc2[nH]1)=c1\s/c(=C/c2ccc(Cl)cc2)c(=O)n1-c1ccccc1 | > 100 µM (inactive) | > 100 µM (inactive) | > 100 µM (inactive) | > 100 µM (inactive) | > 100 µM (inactive) | > 100 µM (inactive) | > 100 µM (inactive) | – | –
Cc1cc([N+](=O)[O-])ccc1Sc1c2ccccc2nc2cc(Cl)ccc12 | 25.4 µM (inactive) | 26.9 µM (inactive) | 20.4 µM (inactive) | 43 µM (inactive) | 23 µM (inactive) | 36.3 µM (inactive) | 34.8 µM (inactive) | 41.3 µM (inactive) | 49.1 µM (inactive)
CC1=C(C(=O)CC(=O)C(=O)Nc2ccccc2C)Sc2ccccc2N1 | – | > 100 µM (inactive) | > 81.3 µM (inactive) | > 100 µM (inactive) | – | > 45.8 µM (inactive) | > 100 µM (inactive) | > 100 µM (inactive) | –
FC(F)(F)c1ccc(C2SCc3nc4ccccc4n32)cc1 (stereo unspecified) | 7.21 µM (inactive) | 33.8 µM (inactive) | – | 66.8 µM (inactive) | – | 7.24 µM (inactive) | > 100 µM (inactive) | > 100 µM (inactive) | 2.96 µM (inactive)
CC1=C(c2nc3ccccc3s2)C(=O)OC1(C)C | > 100 µM (inactive) | > 100 µM (inactive) | > 100 µM (inactive) | > 100 µM (inactive) | > 100 µM (inactive) | > 100 µM (inactive) | – | > 100 µM (inactive) | > 100 µM (inactive)
O=[N+]([O-])c1ccc2nc(/C(=N/Nc3ccccc3)C(O)c3ccc(C(O)/C(=N\Nc4ccccc4)c4nc5ccc([N+](=O)[O-])cc5nc4O)cc3)cnc2c1 (stereo unspecified) | 11.2 µM (inactive) | – | 11.5 µM (inactive) | 58.9 µM (inactive) | – | – | – | – | –
CC1(C)C(=O)C(=Cc2ccco2)C1=O | > 100 µM (inactive) | – | – | > 100 µM (inactive) | > 100 µM (inactive) | > 100 µM (inactive) | > 100 µM (inactive) | > 100 µM (inactive) | > 100 µM (inactive)
CC(C)(CN1CCCCC1)C(=O)/C=C/c1ccc(/C=C/C(=O)C(C)(C)CN2CCCCC2)cc1 | 0.701 µM (active) | 0.361 µM (active) | 0.644 µM (active) | 0.982 µM (active) | 0.344 µM (active) | 0.142 µM (active) | 1.28 µM (inactive) | 2.46 µM (inactive) | –
O=C(c1ccccc1)C1(Br)S(=O)(=O)OCCOS1(=O)=O | > 100 µM (inactive) | > 100 µM (inactive) | > 100 µM (inactive) | > 100 µM (inactive) | > 100 µM (inactive) | > 100 µM (inactive) | – | > 100 µM (inactive) | –
CCO/C([O-])=C(\C(=O)c1ccc([N+](=O)[O-])cc1)[n+]1c(C)n(C)c2ccccc21 | > 100 µM (inactive) | > 100 µM (inactive) | > 100 µM (inactive) | > 100 µM (inactive) | – | > 100 µM (inactive) | > 100 µM (inactive) | > 100 µM (inactive) | –
CN(C)C(=S)/N=c1\ss/c(=N\c2ccccc2)n1-c1ccccc1 | 1.44 µM (inactive) | 16.6 µM (inactive) | – | 24.7 µM (inactive) | – | 28.4 µM (inactive) | 28.5 µM (inactive) | 20.7 µM (inactive) | 29.9 µM (inactive)
O=C(NC1C2CC3CC(C2)CC1C3)/C(Cl)=C1/Sc2ccccc2NC1=O (stereo unspecified) | > 65.5 µM (inactive) | > 49 µM (inactive) | > 100 µM (inactive) | > 91.6 µM (inactive) | > 100 µM (inactive) | > 100 µM (inactive) | > 100 µM (inactive) | > 100 µM (inactive) | –
OC1OCC(COc2cc(Cl)c(Cl)cc2Cl)OC1O (stereo unspecified) | 28.4 µM (inactive) | 36.4 µM (inactive) | > 100 µM (inactive) | 66.1 µM (inactive) | – | 44.2 µM (inactive) | 25.6 µM (inactive) | 22.7 µM (inactive) | 32.7 µM (inactive)
COc1ccc(N2C(=O)C3CC(c4ccc(Br)cc4)c4c([nH]c5ccccc45)C3C2=O)cc1 (stereo unspecified) | 6.93 µM (inactive) | 6.41 µM (inactive) | 9.46 µM (inactive) | 10.2 µM (inactive) | 13 µM (inactive) | 10.1 µM (inactive) | 7.82 µM (inactive) | 14.8 µM (inactive) | –
CC1CC[C@]2(C(=O)O)CCC3(C)C(=CCC4[C@@]5(C)CC[C@H](OS(=O)(=O)c6ccccc6)C(C)(C)C5CC[C@]43C)[C@@H]2[C@H]1C (stereo partly specified) | 39.2 µM (inactive) | > 100 µM (inactive) | – | > 100 µM (inactive) | 36.4 µM (inactive) | 82 µM (inactive) | 37.9 µM (inactive) | > 100 µM (inactive) | > 100 µM (inactive)
COc1ccc(/C=C\c2cc(OC)c(OC)c(OC)c2)cc1 | 0.0013 µM (active) | 0.000273 µM (active) | 0.000428 µM (active) | < 0.01 µM (active) | 0.000741 µM (active) | 0.0004 µM (active) | 0.973 µM (active) | 0.000116 µM (active) | < 0.01 µM (active)
